Source: PMC7600788, “Sequence Permutation Generates Peptides with Different Antimicrobial and Antibiofilm Activities” (Pharmaceuticals, 2020)
No end group written: not given here.

Columns and labels:
E. coli ATCC 25922 = type: cell-based, Escherichia coli; details: ATCC 25922
In short: (§1)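 Broth microdilution with log-phase cultures diluted to OD600~0.001 and two-fold peptide dilutions, incubated overnight at 37 °C and read at 630 nm. MBC taken by plating clear wells at or above MIC. Physiological saline or human serum was present for the whole experiment.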

E. faecium VRE = type: cell-based; details: VRE
In short: (§2)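 Broth microdilution: log-phase cultures diluted to OD600 ~0.001 were treated with two-fold peptide dilutions and incubated overnight at 37 °C, then read at 630 nm. MBC was the lowest concentration giving no growth when wells at or above MIC were plated.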

S. aureus USA300 LAC [1] = experiment: Inhibition of biofilm attachment (XTT); type: cell-based, Staphylococcus aureus; details: concentration series, Figure 6A
Text: Antimicrobial effects of the peptides are different on diverse forms of bacteria. The free and motile forms cultivated in laboratories are the planktonic bacteria onto which the peptides and antibiotics can have direct effects. However, the activity of the microbicides can be reduced to the biofilm forms where bacteria are less exposed and hidden inside the shield. The development of the biofilms starts with the attachment of the individual cells on the substratum followed by biofilm growth and maturation into more solid biomass. We tested the ability of WW295 and WW298 in fighting the biofilms of S. aureus USA300 LAC at the two stages. […] These 96-well commercial plates were pre-treated commercially with tissue culture to enhance cell adhesion.
This experiment was performed to measure the ability of the peptide to inhibit bacterial attachment, the initial step for biofilm formation. In short, an overnight culture of S. aureus USA300 was grown in TSB media to an optical density (600 nm) of ∼1.0. […] Live cells in the biofilms were then quantitated using XTT [2,3-bis(2-methyloxy-4-nitro-5-sulfophenyl)-2H-tertazolium-5-carboxanilide] assay by following the manufacturer’s instructions with modifications. […] Absorbance at 450 nm (only media with XTT containing wells served as the blank) was obtained using a Chromate^TM microtiter plate reader. […]

E. coli K12 = type: cell-based, Escherichia coli; details: K12
In short: as §2

P. aeruginosa PAO1 = type: cell-based, Pseudomonas aeruginosa; details: PAO1
In short: as §2

S. aureus USA300 LAC [2] = experiment: Membrane depolarization, DiBAC4(3); type: cell-based, Staphylococcus aureus; details: 12.5 µM
Method: Bacteria surfaces are negative and cationic peptides are able to neutralize the negative charge, thereby reducing membrane potential. To test this possibility, we evaluated the peptides against S. aureus USA300 LAC using a fluorescent indicator dye, the DiBAC4(3) (Figure 5).
The overnight culture of S. aureus USA300 LAC was grown in TSB media to the exponential phase. Cells were then pelleted and washed with PBS twice, and re-suspended in twice the volume of PBS containing 25 mM glucose for 15 min at 37 °C. For membrane depolarization measurements, 250 nM (final concentration) of the dye DiBAC4(3) (bis-(1,3-dibutylbarbituric acid) trimethine oxonol (ANASPEC, Fremont, CA, USA) was added, and vortexed gently. Ninety microliters of the energized bacteria solution were then added in a 96-well microtiter plate (Corning COSTAR). The plate was immediately placed into a FLUOstar Omega (BMG LABTECH Inc., Cary, NC, USA) microplate reader and fluorescence was measured for 20 min. Once the readings are stabilized, 10 μL of peptide solution were added and the fluorescence readings were continued for another 40 min. Measurements were done at an excitation and emission wavelengths of 485 and 520 nm, respectively. Triton X-100 (0.1%) was included as a positive control.

S. aureus USA300 LAC [3] = type: cell-based, Staphylococcus aureus; details: USA300
In short: as §1

B. subtilis 167 = type: cell-based, Bacillus subtilis; details: 167
In short: as §2

RKIWWWWL [WW295]
MIC, +150 mM NaCl (E. coli ATCC 25922): 6.2 µM
MIC, +10% Human Serum (E. coli ATCC 25922): 12.5 µM
MIC, TSB (E. coli ATCC 25922): 3.1 µM
Minimal Inhibitory Concentration (MIC), VRE (E. faecium VRE): 6.25 µM
effect on surface adherence of MRSA (in words) (S. aureus USA300 LAC [1]): did not show any effects
Minimal Inhibitory Concentration (MIC), EC (E. coli K12): 6.2 µM
Minimal Inhibitory Concentration (MIC), PA (P. aeruginosa PAO1): 25 to 50 µM
membrane depolarization (DiBAC4(3) fluorescence) (S. aureus USA300 LAC [2]): less active in depolarizing the membranes
MIC, +150 mM NaCl (S. aureus USA300 LAC [3]): 3.1 µM
MIC, +10% Human Serum (S. aureus USA300 LAC [3]): 12.5 µM
MIC, TSB (S. aureus USA300 LAC [3]): 3.1 µM
Minimal Inhibitory Concentration (MIC), BS (B. subtilis 167): 12.5 µM
